Measured values: publication PMC12736255, “Reinvestigating Pyrrol-2-One-Based Compounds: From Antimicrobial Agents to Promising Antitumor Candidates” (Pharmaceuticals, 2025)

Experiments:
PC-3 = assay: NCI-60 single-dose screen; assay type: cell-based; settings: Homo sapiens, PC-3, PC-3, 10^–5 M; read-out: GI (%)
In short: (§1)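 At 10^−5 M, the submitted compounds were screened once across the NCI collection of 60 human cancer lines representing leukemia, melanoma and solid tumors of lung, colon, brain, ovary, kidney, prostate and breast.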

CCRF-CEM [1] = assay: NCI-60 single-dose screen; assay type: cell-based; settings: Homo sapiens, 10^–5 M, read-out: GI (%)
In short: as §1

UACC-62 = assay: NCI-60 single-dose screen; assay type: cell-based; settings: Homo sapiens; UACC-62, 10^–5 M; read-out: GI (%)
In short: as §1

MALME-3M [2] = assay: NCI-60 single-dose screen; assay type: cell-based; settings: Homo sapiens, 10^–5 M, read-out: GI (%)
In short: as §1

OVCAR-5 = assay: NCI-60 single-dose screen; assay type: cell-based; settings: Homo sapiens; OVCAR-5, 10^–5 M; read-out: GI (%)
In short: as §1

HCC-2998 = assay: NCI-60 single-dose screen; assay type: cell-based; settings: Homo sapiens; HCC-2998, 10^–5 M; read-out: GI (%)
In short: as §1

DU-145 = assay: NCI-60 single-dose screen; assay type: cell-based; settings: Homo sapiens; DU-145, 10^–5 M; read-out: GI (%)
In short: as §1

ACHN = assay: NCI-60 single-dose screen; assay type: cell-based; settings: Homo sapiens, 10^–5 M, read-out: GI (%)
In short: as §1

TK-10 [3] = assay: NCI-60 single-dose screen; assay type: cell-based; settings: Homo sapiens; TK-10, 10^–5 M; read-out: GI (%)
In short: as §1

K-562 = assay: NCI-60 single-dose screen; assay type: cell-based; settings: Homo sapiens, K562; K-562, 10^–5 M; read-out: GI (%)
In short: as §1

IGROV1 = assay: NCI-60 single-dose screen; assay type: cell-based; settings: Homo sapiens, IGROV-1; IGROV1, 10^–5 M; read-out: GI (%)
In short: as §1

A549/ATCC = assay: NCI-60 single-dose screen; assay type: cell-based; settings: Homo sapiens, 10^–5 M, read-out: GI (%)
In short: as §1

SK-MEL-28 = assay: NCI-60 single-dose screen; assay type: cell-based; settings: Homo sapiens; SK-MEL-28, 10^–5 M; read-out: GI (%)
In short: as §1

OVCAR-4 = assay: NCI-60 single-dose screen; assay type: cell-based; settings: Homo sapiens; OVCAR-4, 10^–5 M; read-out: GI (%)
In short: as §1

SR [4] = assay: NCI-60 single-dose screen; assay type: cell-based; settings: Homo sapiens, 10^–5 M, read-out: GI (%)
In short: as §1

NCI-H460 = assay: NCI-60 single-dose screen; assay type: cell-based; settings: Homo sapiens; NCI-H460, 10^–5 M; read-out: GI (%)
In short: as §1

SR [5] = assay: NCI-60 5-dose screen; assay type: cell-based, human
SF-268 = assay: NCI-60 5-dose screen; assay type: cell-based, human
HOP-92 = assay: NCI-60 5-dose screen; assay type: cell-based, human
T-47D = assay: NCI-60 5-dose screen; assay type: cell-based, human
HT29 = assay: NCI-60 5-dose screen; assay type: cell-based, human
CCRF-CEM [6] = assay: NCI-60 5-dose screen; assay type: cell-based; settings: Homo sapiens
M14 = assay: NCI-60 5-dose screen; assay type: cell-based, human
HCT-116 = assay: NCI-60 5-dose screen; assay type: cell-based, human
RXF 393 = assay: NCI-60 5-dose screen; assay type: cell-based, human
BT-549 [7] = assay: NCI-60 5-dose screen; assay type: cell-based, human
TK-10 [8] = assay: NCI-60 5-dose screen; assay type: cell-based, human
RPMI-8226 = assay: NCI-60 5-dose screen; assay type: cell-based, human
OVCAR-3 = assay: NCI-60 5-dose screen; assay type: cell-based, human
MALME-3M [9] = assay: NCI-60 5-dose screen; assay type: cell-based, human
HOP-62 [10] = assay: NCI-60 5-dose screen; assay type: cell-based, human
HOP-62 [11] = assay: NCI-60 single-dose screen; assay type: cell-based, human; settings: HOP-62, 10^–5 M
In short: as §1

MDA-MB-468 = assay: NCI-60 single-dose screen; assay type: cell-based, human; settings: MDA-MB-468, 10^–5 M
In short: as §1

UO-31 = assay: NCI-60 single-dose screen; assay type: cell-based, human; settings: UO-31, 10^–5 M
In short: as §1

BT-549 [12] = assay: NCI-60 single-dose screen; assay type: cell-based, human; settings: BT-549, 10^–5 M
In short: as §1

U251 = assay: NCI-60 single-dose screen; assay type: cell-based, human; settings: U251, 10^–5 M
In short: as §1

SF-295 = assay: NCI-60 single-dose screen; assay type: cell-based, human; settings: SF-295, 10^–5 M
In short: as §1

[13] = Homo sapiens, read-out: LC50 (the source's name)

O=C1C(Nc2ccc(I)cc2)=CC(c2ccc(C(F)(F)F)cc2)N1c1ccc(I)cc1 (centres unmarked) [3e]
inhibition at 10 µM (PC-3): 26% | inhibition at 10 µM (CCRF-CEM [1]): 100% | inhibition at 10 µM (UACC-62): 12% | inhibition at 10 µM (MALME-3M [2]): 78% | inhibition at 10 µM (OVCAR-5): 18% | inhibition at 10 µM (HCC-2998): 0% | inhibition at 10 µM (DU-145): 28% | inhibition at 10 µM (ACHN): 100% | inhibition at 10 µM (TK-10 [3]): 100% | inhibition at 10 µM (K-562): 16% | inhibition at 10 µM (IGROV1): 12% | inhibition at 10 µM (A549/ATCC): 30% | inhibition at 10 µM (SK-MEL-28): 31% | inhibition at 10 µM (OVCAR-4): 100% | inhibition at 10 µM (SR [4]): 99% | inhibition at 10 µM (NCI-H460): 43% | TGI (SR [5]): >100 µM | GI50 (SR [5]; Homo sapiens): 2.84 µM | CC50 (SR [5]; [13]): > 100 µM | TGI (SF-268): >100 µM | GI50 (SF-268; Homo sapiens): 4.66 µM | CC50 (SF-268; [13]): > 100 µM | TGI (HOP-92): 7.22 µM | GI50 (HOP-92; Homo sapiens): 3.15 µM | CC50 (HOP-92; [13]): > 100 µM | TGI (T-47D): 7.57 µM | GI50 (T-47D; Homo sapiens, T47D): 2.74 µM | CC50 (T-47D; Homo sapiens, T47D, read-out: LC50 (the source's name)): > 100 µM | TGI (HT29): >100 µM | GI50 (HT29; Homo sapiens, HT-29): > 100 µM | CC50 (HT29; Homo sapiens, HT-29, read-out: LC50 (the source's name)): > 100 µM | GI50 (CCRF-CEM [6]): 3.35 µM | CC50 (CCRF-CEM [6]; read-out: LC50 (the source's name)): > 100 µM | TGI (M14): >100 µM | GI50 (M14; Homo sapiens): 8.94 µM | CC50 (M14; [13]): > 100 µM | TGI (HCT-116): >100 µM | GI50 (HCT-116; Homo sapiens): 5.92 µM | CC50 (HCT-116; [13]): > 100 µM | TGI (RXF 393): >100 µM | GI50 (RXF 393; Homo sapiens): 4.23 µM | CC50 (RXF 393; [13]): > 100 µM | TGI (BT-549 [7]): >100 µM | GI50 (BT-549 [7]; Homo sapiens): 9.61 µM | CC50 (BT-549 [7]; [13]): > 100 µM | TGI (TK-10 [8]): >100 µM | GI50 (TK-10 [8]; Homo sapiens): > 100 µM | CC50 (TK-10 [8]; [13]): > 100 µM | TGI (RPMI-8226): >100 µM | GI50 (RPMI-8226; Homo sapiens): 5.38 µM | CC50 (RPMI-8226; [13]): > 100 µM | TGI (OVCAR-3): >100 µM | GI50 (OVCAR-3; Homo sapiens): 7.48 µM | CC50 (OVCAR-3; [13]): > 100 µM | GI50 (MALME-3M [9]; Homo sapiens, Malme-3M): 2 µM | CC50 (MALME-3M [9]; Homo sapiens, Malme-3M, read-out: LC50 (the source's name)): 9.34 µM | TGI (MALME-3M [9]; MALME-3M): 4.32 µM | TGI (HOP-62 [10]): >100 µM | GI50 (HOP-62 [10]; Homo sapiens): > 100 µM | CC50 (HOP-62 [10]; [13]): > 100 µM

O=C1C(Nc2ccc(I)cc2)=CC(c2ccco2)N1c1ccc(I)cc1 (centres unmarked) [3m]
inhibition at 10 µM (PC-3): 28% | inhibition at 10 µM (CCRF-CEM [1]): 59% | inhibition at 10 µM (UACC-62): 61% | inhibition at 10 µM (MALME-3M [2]): 34% | inhibition at 10 µM (OVCAR-5): 0% | inhibition at 10 µM (HCC-2998): 10% | inhibition at 10 µM (DU-145): 0% | inhibition at 10 µM (ACHN): 9% | inhibition at 10 µM (TK-10 [3]): 7% | inhibition at 10 µM (K-562): 14% | inhibition at 10 µM (IGROV1): 8% | inhibition at 10 µM (A549/ATCC): 16% | inhibition at 10 µM (SK-MEL-28): 20% | inhibition at 10 µM (OVCAR-4): 0% | inhibition at 10 µM (SR [4]): 76% | inhibition at 10 µM (NCI-H460): 0% | GI (%) (HOP-62 [11]): 50% | GI (%) (MDA-MB-468): 100 ^q1% | GI (%) (UO-31): 17% | GI (%) (BT-549 [12]): 17% | GI (%) (U251): 0% | GI (%) (SF-295): 63%

O=C1C(Nc2ccc(I)cc2)=CC(c2ccc3c(c2)OCO3)N1c1ccc(I)cc1 (centres unmarked) [3n]
inhibition at 10 µM (PC-3): 1% | inhibition at 10 µM (CCRF-CEM [1]): 3% | inhibition at 10 µM (UACC-62): 0% | inhibition at 10 µM (MALME-3M [2]): 0% | inhibition at 10 µM (OVCAR-5): 0% | inhibition at 10 µM (HCC-2998): 6% | inhibition at 10 µM (DU-145): 0% | inhibition at 10 µM (ACHN): 0% | inhibition at 10 µM (TK-10 [3]): 0% | inhibition at 10 µM (K-562): 6% | inhibition at 10 µM (IGROV1): 5% | inhibition at 10 µM (A549/ATCC): 15% | inhibition at 10 µM (SK-MEL-28): 3% | inhibition at 10 µM (OVCAR-4): 14% | inhibition at 10 µM (SR [4]): 27% | inhibition at 10 µM (NCI-H460): 3% | GI (%) (HOP-62 [11]): 0% | GI (%) (MDA-MB-468): 83% | GI (%) (UO-31): 6% | GI (%) (BT-549 [12]): 3% | GI (%) (U251): 0% | GI (%) (SF-295): 9%
